The values below come from paper PMC9221290, “Alkaloids of Dicranostigma franchetianum (Papaveraceae) and Berberine Derivatives as a New Class of Antimycobacterial Agents” (Biomolecules, 2022).

Series [1] has as its system Mycobacterium kansasii DSM 44162 (ATCC 12478). Put plainly: Antimycobacterial microdilution broth assay (resazurin), M. kansasii. It counts as cell-based. As to conditions: Mycobacterium kansasii, 96 h. (Broth dilution looks for growth in wells or tubes with falling amounts of substance.)
The test system of series [2] is HepG2 cells.
Series [3] concerns Mtb H37Ra ITM-M006710 (ATCC 9431). Put plainly: Antimycobacterial microdilution broth assay (resazurin), Mtb H37Ra. The class given is cell-based, Mycobacterium tuberculosis. As to conditions: Mycobacterium tuberculosis, read-out: MIC Mtb H37Ra.
Series [4] relates to HepG2 cells. Put plainly: cells. As to conditions: Homo sapiens, HepG2, 24 h.
In series [5] the test system is Mycolicibacterium aurum DSM 43999 (ATCC 23366). Put plainly: Antimycobacterial microdilution broth assay (resazurin), M. aurum. It counts as cell-based. As to conditions: Mycolicibacterium aurum, 72 h.
Series [6] concerns Mycobacterium avium DSM 44156 (ATCC 25291). Put plainly: Antimycobacterial microdilution broth assay (resazurin), M. avium. The class given is cell-based. As to conditions: Mycobacterium avium, 96 h, read-out: MIC M. avium, microdilution broth, resazurin, 96 h.
The test system of series [7] is Mycolicibacterium smegmatis DSM 43465 (ATCC 607). Put plainly: Antimycobacterial microdilution broth assay (resazurin), M. smegmatis. The class given is cell-based. As to conditions: Mycolicibacterium smegmatis, 48 h.
The subject of series [8] is five Mycobacterium or Mycolicibacterium strains. Put plainly: organism not typed. It counts as cell-based. As to conditions: read-out: MICs against all tested mycobacterial strains.
The next series can be described thus: in vitro. As to conditions: human, % of cell viability compared to control; for viability at 0.1 µM: HepG2, 0.1 µM; for viability at 1 µM: HepG2, 1 µM; for viability at 5 µM: HepG2, 5 µM; for viability at 10 µM: HepG2, 10 µM; for viability at 20 µM: HepG2, 20 µM; for viability at 30 µM: HepG2, 30 µM; for viability at 40 µM: HepG2, 40 µM; for viability at 50 µM: HepG2, 50 µM.

The test system of series [9] is methicillin-resistant Staphylococcus aureus. Details: method as in PMID 21341176. As to conditions: read-out: IC50 against methicillin-resistant Staphylococcus aureus; cited from earlier work.
Another series has as its system Aspergillus fumigatus. Further details: method as in PMID 21341176. As to conditions: read-out: IC50 against Aspergillus fumigatus; cited from earlier work.
A further series has as its system M. intracellulare. As to conditions: cited from earlier work.
The next series has as its system pulmonary tuberculosis. Further details: method as in PMID 34745081. As to conditions: mice with pulmonary tuberculosis; cited from earlier work.
Series [10] relates to Mycolicibacterium smegmatis. Details: method as in PMID 9784149. As to conditions: cited from earlier work.
Where [11] appears, read: read-out: MIC M. kansasii, microdilution broth, resazurin, 96 h.
Where [12] appears, read: read-out: HepG2 IC50, MTT, 24 h incubation.
Where [13] appears, read: 120 h, microdilution broth, resazurin, 120 h.
[14] abbreviates: calculated from MIC (µg/mL) and MW.
The mark [15] stands for this setting: read-out: MIC M. aurum, microdilution broth, resazurin, 72 h.
Where [16] appears, read: read-out: MIC M. smegmatis, microdilution broth, resazurin, 48 h.

Converted amounts (≈) assume the structure as drawn. Like-named read-outs stand apart in the source and are kept apart here.

The term IC50 denotes the concentration that gives 50% inhibition. Usually viability stands for a read-out of living cells in per cent, often relative to untreated cells. In the case of `COc1ccc2cc3[n+](cc2c1OCc1ccccc1Br)CCc1cc2c(cc1-3)OCO2` [16e, 9-O-(2-brombenzyl)berberine chloride], the MIC in series [1] (setting [11]) was 3.12 µg/mL; in series [3] (setting [13]), 1.56 µg/mL; in [3] (setting [14]) it was 2.96 µM; in [5] (setting [15]), 0.78 µg/mL; in [6], 1.56 µg/mL; in series [7] (setting [16]) it was 0.39 µg/mL. In series [8], the MIC was in the range of 0.39 to 3.12 µg/mL. In addition, in the series with HepG2 cells [2], the “SI (selectivity index)” value worked out at 3.92. For the same compound, the IC50 in the series on HepG2 cells [2] (setting [12]) was determined as 11.8 ± 0.29 µM; with HepG2 cells [4] (read-out: HepG2 IC50, 1. measurement, MTT, 24 h, single measurement 1) it was 11.5 µM; in the series on HepG2 cells [4] (read-out: HepG2 IC50, 2. measurement, MTT, 24 h, single measurement 2), 11.8 µM; in the series on HepG2 cells [4] (read-out: HepG2 IC50, 3. measurement, MTT, 24 h, single measurement 3), 12 µM; in the series with HepG2 cells [4] (setting [12]) it was 11.6 ± 0.29 µM. Also, the viability at 0.1 µM was determined as 102% in “in vitro” (1. measurement), 95.5% in the series “in vitro” (2. measurement) and 92% in “in vitro” (3. measurement). The viability at 1 µM in “in vitro” (1. measurement) worked out at 96.3%; in the series “in vitro” (2. measurement), 93.8%; in “in vitro” (3. measurement), 98.5%. For the same compound, the viability at 5 µM in the series “in vitro” (1. measurement) stood at 66.9%; in “in vitro” (2. measurement), 66.2%; in “in vitro” (3. measurement) it was 68%. In addition, the viability at 10 µM worked out at 48.6% in the series “in vitro” (1. measurement), 53.6% in the series “in vitro” (2. measurement) and 53.7% in the series “in vitro” (3. measurement). The viability at 20 µM in “in vitro” (1. measurement) turned out to be 40.7%; in “in vitro” (2. measurement), 46.1%; in the series “in vitro” (3. measurement), 45.1%. The viability at 30 µM was found to be 34.3% in the series “in vitro” (1. measurement), 36.5% in “in vitro” (2. measurement) and 34.5% in “in vitro” (3. measurement). The viability at 40 µM in the series “in vitro” (1. measurement) was 24.6%; in “in vitro” (2. measurement), 16.2%; in the series “in vitro” (3. measurement) it was 14.8%. Moreover, the values for the viability at 50 µM in “in vitro” (1. measurement), in the series “in vitro” (2. measurement) and in the series “in vitro” (3. measurement) were 10.5%, 2.08% and 2.75%, respectively.

For `COc1ccc2c(c1OC)C(OC1c3c(ccc(OC)c3OC)-c3ccc4cc5c(cc4c3N1C)OCO5)N(C)c1c-2ccc2cc3c(cc12)OCO3` (stereo not drawn) [compound 5, bis-[6-(5,6-dihydrochelerythrinyl)]ether], the MIC in series [1] (setting [11]) was 31.2 µg/mL (≈ 43.8 µM); in series [3] (setting [13]), 31.2 µg/mL; in [3] (setting [14]), 44 µM; in [5] (setting [15]), 31.2 µg/mL (≈ 43.8 µM); in [6], 31.2 µg/mL (≈ 43.8 µM); in [7] (setting [16]), 31.2 µg/mL (≈ 43.8 µM). In [8], the MIC lay in the range of 15.6 to 31.2 µg/mL (≈ 21.9 to 43.8 µM). Besides, the IC50 in series [9] is 1000 nM; in the series with Aspergillus fumigatus, 900 nM.

Consider `COc1ccc2cc3[n+](cc2c1OC)CCc1cc2c(cc1-3)OCO2` [compound 16, berberine], for which the MIC in series [1] (read-out: MIC M. kansasii) is 31.2 µg/mL; in series [3] (setting [13]), 125 µg/mL; in series [3] (setting [14]), 336 µM; in [5] (read-out: MIC M. aurum), 62.5 µg/mL; in [6], 31.2 µg/mL; in series [7] (microdilution broth, resazurin, read-out: MIC M. smegmatis) it was 62.5 µg/mL. The “MIC against M. intracellulare” value in the series with M. intracellulare is 1.56 µg/mL; with M. intracellulare (ref Gentry et al. 1998), 200 µg/mL. Further, in the series on pulmonary tuberculosis, the “effects on bacterial burden” value was “no additive or synergistic effects”. In the series with pulmonary tuberculosis, the lung pathology result is listed as “decreased lung pathology”. The “MIC against Mycolicibacterium smegmatis” value in series [10] is listed as 25 µg/mL.
